Converted amounts (≈) assume the structure as drawn. Like-named read-outs stand apart in the source and are kept apart here.
Assays:
bacterial ribosomes = test: Ribosomal drug susceptibility (MIC) of recombinant bacteria; set-up: MIC, bacterial ribosomes: unit not given beside the values; settings: for MIC, bacterial ribosomes: Table 7, 72 h incubation
[1] = guinea pig
Description: “Treshold shift” is the difference in auditory threshold before and three weeks after treatment.
Guinea pigs received a systemic application of aminoglycosides once daily in the dosing indicated for 14 days, and were allowed to rest for 14 days before post-treatment ABR was taken.

E. coli = test: MIC against gram-negative bacteria; format: cell-based; settings: Escherichia coli, read-out: MIC
Text: Agents Chemother. 2003, 47:1496-1502.

[2] = tested on: Cochlear explants from newborn mice; test: Cochleatoxicity in vitro, hair cell loss in cochlear explants; format: cell-based
Description: FIG. 1: Cochleatoxicity in vitro
(a) Dose-response relationship of drug-induced hair cell loss in cochlear explants. Hair cell loss was quantified along the entire length of the explant and plotted against drug concentration. %=% outer hair cells missing.
Cochlear explants from newborn mice were treated with 0.5 mM aminoglycoside compound for 24 h; subsequently hair cell damage was assessed by epifluorescence microscopy.

[3] = General toxicity in guinea pigs; format: in vivo; settings: for observations (general toxicity): once daily for 14 days, monitored additional 14 days
Description: Guinea pigs received a systemic application of aminoglycosides once daily in the dosing indicated in Table 9 for 14 days and were then monitored for an additional 14 days.

M. bolletii = test: MIC against non-tuberculous rapidly-growing mycobacteria, microdilution; format: cell-based; settings: Mycobacteroides abscessus, read-out: minimal inhibitory concentration (MIC)
Description: (§1) Activity of apramycin was assessed in standard microdilution assays and is expressed as minimal inhibitory concentration (MIC) in μg/ml.

M. abscessus = test: as above; format: cell-based; settings: Mycobacteroides abscessus; strain 500039/08 M. abscessus; read-out: minimal inhibitory concentration (MIC)
Description: as §1

M. massiliense = test: as above; format: cell-based; settings: Mycobacteroides abscessus, read-out: minimal inhibitory concentration (MIC)
Description: as §1

[4] = tested on: clinical methicillin resistant Staphylococcus aureus (MRSA) isolates; test: MIC against clinical MRSA isolates, LB microdilution assay; settings: Staphylococcus aureus, MRSA
Description: Activity was assessed by determination of minimal inhibitory concentrations (MIC), as described in Pfister et al., Antimicrob. […] Cultures from single colonies were grown in LB medium and used for MIC tests in a microtiter plate format. Starting cultures contained 200 μl of bacterial cells at an optical density of 0.025 at 600 nm, and the respective drug was added in twofold series of dilution.

cytohybrid ribosomes = test: Ribosomal drug susceptibility (MIC) of recombinant bacteria; set-up: MIC, cytohybrid ribosomes: unit not given beside the values; settings: for MIC, cytohybrid ribosomes: Table 7, 72 h incubation
M. kansasii = test: Drug susceptibility of non-tuberculous slow-growing mycobacteria, MGIT960; format: cell-based
mitohybrid ribosomes = test: Ribosomal drug susceptibility (MIC) of recombinant bacteria; set-up: MIC, mitohybrid ribosomes: unit not given beside the values; settings: for MIC, mitohybrid ribosomes: Table 7, 72 h incubation
M. avium-intracellulare = test: Drug susceptibility of non-tuberculous slow-growing mycobacteria, MGIT960; format: cell-based
[5] = E. coli AG01, clin. isol. (Gm^S)
[6] = E. coli AG02, clin. isol (Gm^S)
[7] = E. coli AG03, clin. isol (Gm^R)
[8] = E. coli AG07, BM13/pIP135, resistance mechanism AAC(3)
[9] = E. coli AG08, BM13/pIP055, resistance mechanism ANT(2″)
[10] = E. coli AG09, AAC(6′)-1B, resistance mechanism AAC(6′)
[11] = E. coli AG36, HB101/pAT197, resistance mechanism ANT(4′)
[12] = E. coli AG37, HB101/pAG21-1, resistance mechanism APH(3′)
[13] = strain 177217/10 M. massiliense
[14] = strain 186139/07 M. massiliense
[15] = strain 500044/09 M. massiliense
[16] = MRSA AG042, strain 101-06R Gm^R

## CNC1C(OC2OC(CO)C(N)C(O)C2O)OC2CC(N)C(OC3C(N)CC(N)C(O)C3O)OC2C1O (centres unmarked) [Apramycin]
Bacterial ribosomes
  MIC, bacterial ribosomes: 1-2
Bacterial ribosomes; Table 10
  MIC, wild type bacteria: 1.0 to 2.0 µg/mL
[1]
  in vivo auditory response (auditory brain stem response, threshold shift at 12 kHz): substantially less affected
E. coli; [5]
  MIC: 16 µg/mL (≈ 29.7 µM)
E. coli; [6]
  MIC: 16 to 32 µg/mL (≈ 29.7 to 59.3 µM)
E. coli; [7]
  MIC: 16 to 32 µg/mL (≈ 29.7 to 59.3 µM)
E. coli; E. coli AG06, BM13
  MIC: 4 µg/mL (≈ 7.41 µM)
E. coli; [8]
  MIC: 8 µg/mL (≈ 14.8 µM)
E. coli; [9]
  MIC: 4 µg/mL (≈ 7.41 µM)
E. coli; [10]
  MIC: 8 µg/mL (≈ 14.8 µM)
E. coli; [11]
  MIC: 4 µg/mL (≈ 7.41 µM)
E. coli; [12]
  MIC: 4 µg/mL (≈ 7.41 µM)
[2]
  In vitro cochleatoxicity (drug-induced hair cell loss in cochlear explants, dose-response): significantly less than that of gentamicin
[2]; mouse, 24 h, 0.5 mM
  Hair cell count: no hair cells missing (<5%)
  inner and outer hair cells missing / lost: < 5%
[3]; 152 mg/kg base (132 mg/kg gentamicin base equivalent)
  observations (general toxicity): normal weight gain
[3]; 184 mg/kg base (160 mg/kg gentamicin base equivalent)
  observations (general toxicity): normal weight gain
[3]; 217 mg/kg base (188 mg/kg gentamicin base equivalent)
  observations (general toxicity): normal weight gain
[3]; 355 mg/kg base (309 mg/kg gentamicin base equivalent)
  observations (general toxicity): less weight gain
[3]; 432 mg/kg
  Kidney histopathology, interpretation: Mild, multifocal interstitial lymphoplasmacytic inflammation
[3]; 432 mg/kg base (376 mg/kg gentamicin base equivalent)
  observations (general toxicity): less weight gain
[3]; 432 mg/kg, lymphoplasmacytic aggregates in the renal interstitium
  Kidney histopathology, renal mass affected in the sections: less than 5%
[3]; 649 mg/kg
  Kidney histopathology, interpretation: Mild, multifocal tubular nephrosis
[3]; 649 mg/kg base (564 mg/kg gentamicin base equivalent)
  observations (general toxicity): less weight gain
[3]; 649 mg/kg, foci of tubular degeneration and regeneration in the superficial cortex
  Kidney histopathology, renal mass affected in the sections: less than 5%
[3]; one animal each at 432 and 649 mg/kg
  necropsy findings at the end of the experiment: no significant lesions or gross findings were observed
M. bolletii; strain 179639/10 M. bolletii
  MIC: 4 µg/mL (≈ 7.41 µM)
M. bolletii; strain 181739/08 M. bolletii
  MIC: 4 µg/mL (≈ 7.41 µM)
M. bolletii; strain 183177/08 M. bolletii
  MIC: 2 µg/mL (≈ 3.71 µM)
M. abscessus
  MIC: 0.5 µg/mL (≈ 0.927 µM)
M. massiliense; [13]
  MIC: 4 µg/mL (≈ 7.41 µM)
M. massiliense; [14]
  MIC: 4 µg/mL (≈ 7.41 µM)
M. massiliense; [15]
  MIC: 2 µg/mL (≈ 3.71 µM)
[4]; MRSA AG038, strain 70-26S Gm^S
  MIC: 8 µg/mL (≈ 14.8 µM)
[4]; MRSA AG040, strain 87-26S Gm^S
  MIC: 8 µg/mL (≈ 14.8 µM)
[4]; MRSA AG041, strain 98-25S Gm^S
  MIC: 8 µg/mL (≈ 14.8 µM)
[4]; [16]
  MIC: 8 µg/mL (≈ 14.8 µM)
[4]; MRSA AG043, strain 01-08R Gm^R
  MIC: 16 to 32 µg/mL (≈ 29.7 to 59.3 µM)
[4]; MRSA AG044, strain 07-12R Gm^R
  MIC: 16 µg/mL (≈ 29.7 µM)
[4]; MRSA AG045, strain 08-12R Gm^R
  MIC: 8 to 16 µg/mL (≈ 14.8 to 29.7 µM)
[4]; MRSA AG046, strain 12-06R Gm^R
  MIC: 8 to 16 µg/mL (≈ 14.8 to 29.7 µM)
[4]; MRSA AG047, strain 18-06R Gm^R
  MIC: 8 to 16 µg/mL (≈ 14.8 to 29.7 µM)
[4]; MRSA AG048, strain 20-06R Gm^R
  MIC: 8 to 16 µg/mL (≈ 14.8 to 29.7 µM)
[4]; MRSA AG049, strain 23-12R Gm^R
  MIC: 8 to 16 µg/mL (≈ 14.8 to 29.7 µM)
[4]; MRSA AG050, strain 31-06R Gm^R
  MIC: 4 to 8 µg/mL (≈ 7.41 to 14.8 µM)
[4]; MRSA AG051, strain 36-06R Gm^R
  MIC: 8 µg/mL (≈ 14.8 µM)
[4]; MRSA AG052, strain 53-14I Gm^R
  MIC: 8 µg/mL (≈ 14.8 µM)
[4]; MRSA AG053, strain 56-06R Gm^R
  MIC: 8 µg/mL (≈ 14.8 µM)
Cytohybrid ribosomes
  MIC, cytohybrid ribosomes: >1024
Cytohybrid ribosomes; Table 10
  MIC, bacteria with cytohybrid ribosome: >256.0 µg/mL
M. kansasii; strain 177227/06 M. kansasii, 1 μg/ml
  Activity (resistant/susceptible): R
M. kansasii; strain 177227/06 M. kansasii, 4 μg/ml
  Activity (resistant/susceptible): S
M. kansasii; strain 177227/06 M. kansasii, 10 μg/ml
  Activity (resistant/susceptible): S
M. kansasii; strain 180235/06 M. kansasii, 1 μg/ml
  Activity (resistant/susceptible): R
M. kansasii; strain 180235/06 M. kansasii, 4 μg/ml
  Activity (resistant/susceptible): S
M. kansasii; strain 180235/06 M. kansasii, 10 μg/ml
  Activity (resistant/susceptible): S
Mitohybrid ribosomes
  MIC, mitohybrid ribosomes: 1024
Mitohybrid ribosomes; Table 10
  MIC, bacteria with mitohybrid ribosome: >256.0 µg/mL
M. avium-intracellulare; strain 182034/06 M. avium-intracellulare, 1 μg/ml
  Activity (resistant/susceptible): R
M. avium-intracellulare; strain 182034/06 M. avium-intracellulare, 4 μg/ml
  Activity (resistant/susceptible): S
M. avium-intracellulare; strain 182034/06 M. avium-intracellulare, 10 μg/ml
  Activity (resistant/susceptible): S
M. avium-intracellulare; strain 182124/07 M. avium-intracellulare, 1 μg/ml
  Activity (resistant/susceptible): R
M. avium-intracellulare; strain 182124/07 M. avium-intracellulare, 4 μg/ml
  Activity (resistant/susceptible): S
M. avium-intracellulare; strain 182124/07 M. avium-intracellulare, 10 μg/ml
  Activity (resistant/susceptible): S
M. avium-intracellulare; strain 182550/07 M. avium-intracellulare, 1 μg/ml
  Activity (resistant/susceptible): R
M. avium-intracellulare; strain 182550/07 M. avium-intracellulare, 4 μg/ml
  Activity (resistant/susceptible): S
M. avium-intracellulare; strain 182550/07 M. avium-intracellulare, 10 μg/ml
  Activity (resistant/susceptible): S

## NC[C@H]1O[C@H](O[C@H]2[C@H](O)[C@@H](O[C@H]3O[C@H](CO)[C@@H](O)[C@H](N)[C@H]3O)[C@H](N)C[C@@H]2N)[C@H](N)C[C@@H]1O [Tobramycin]
Bacterial ribosomes
  MIC, bacterial ribosomes: 1
E. coli; [5]
  MIC: 4 to 8 µg/mL (≈ 8.56 to 17.1 µM)
E. coli; [6]
  MIC: 2 µg/mL (≈ 4.28 µM)
E. coli; [7]
  MIC: 32 µg/mL (≈ 68.4 µM)
E. coli; E. coli AG06, BM13
  MIC: 0.5 µg/mL (≈ 1.07 µM)
E. coli; [8]
  MIC: 4 µg/mL (≈ 8.56 µM)
E. coli; [9]
  MIC: 8 to 64 µg/mL (≈ 17.1 to 137 µM)
E. coli; [10]
  MIC: 64 to 128 µg/mL (≈ 137 to 274 µM)
E. coli; [11]
  MIC: 16 to 32 µg/mL (≈ 34.2 to 68.4 µM)
E. coli; [12]
  MIC: 1 to 2 µg/mL (≈ 2.14 to 4.28 µM)
M. bolletii; strain 179639/10 M. bolletii
  MIC: 32 µg/mL (≈ 68.4 µM)
M. bolletii; strain 181739/08 M. bolletii
  MIC: 32 µg/mL (≈ 68.4 µM)
M. bolletii; strain 183177/08 M. bolletii
  MIC: 16 µg/mL (≈ 34.2 µM)
M. abscessus
  MIC: 4 µg/mL (≈ 8.56 µM)
M. massiliense; [13]
  MIC: 32 µg/mL (≈ 68.4 µM)
M. massiliense; [14]
  MIC: 16 µg/mL (≈ 34.2 µM)
M. massiliense; [15]
  MIC: 8 µg/mL (≈ 17.1 µM)
[4]
  MIC: 128 to 256 µg/mL (≈ 274 to 548 µM)
[4]; MRSA AG038, strain 70-26S Gm^S
  MIC: 0.5 to 1 µg/mL (≈ 1.07 to 2.14 µM)
[4]; MRSA AG040, strain 87-26S Gm^S
  MIC: ≥ 256 µg/mL
[4]; MRSA AG041, strain 98-25S Gm^S
  MIC: 0.5 to 1 µg/mL (≈ 1.07 to 2.14 µM)
[4]; [16]
  MIC: ≥ 256 µg/mL
[4]; MRSA AG043, strain 01-08R Gm^R
  MIC: 32 µg/mL (≈ 68.4 µM)
[4]; MRSA AG044, strain 07-12R Gm^R
  MIC: 8 µg/mL (≈ 17.1 µM)
[4]; MRSA AG045, strain 08-12R Gm^R
  MIC: 8 µg/mL (≈ 17.1 µM)
[4]; MRSA AG047, strain 18-06R Gm^R
  MIC: ≥ 256 µg/mL
[4]; MRSA AG048, strain 20-06R Gm^R
  MIC: ≥ 256 µg/mL
[4]; MRSA AG049, strain 23-12R Gm^R
  MIC: 8 to 16 µg/mL (≈ 17.1 to 34.2 µM)
[4]; MRSA AG050, strain 31-06R Gm^R
  MIC: 32 to 64 µg/mL (≈ 68.4 to 137 µM)
[4]; MRSA AG051, strain 36-06R Gm^R
  MIC: 32 to 64 µg/mL (≈ 68.4 to 137 µM)
[4]; MRSA AG052, strain 53-14I Gm^R
  MIC: 8 to 16 µg/mL (≈ 17.1 to 34.2 µM)
[4]; MRSA AG053, strain 56-06R Gm^R
  MIC: 16 to 32 µg/mL (≈ 34.2 to 68.4 µM)
Cytohybrid ribosomes
  MIC, cytohybrid ribosomes: 512
Mitohybrid ribosomes
  MIC, mitohybrid ribosomes: 128

From US9271993B2, “Treatment of bacterial infectious diseases” (priority 2010, dated 2016)
